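Each compound was tested at five concentrations against cells in 96-well plates for 48 hours. TGI denotes the concentration required for complete inhibition of growth.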
system: HCT-15 colon; test: inhibition of tumour cell growth, NCI panel, 48 h

| Structure (SMILES) | TGI [µM] |
| --- | --- |
| C=C1C(=O)C=C[C@]2(C)CC[C@H]3C(=C)C(=O)O[C@@H]3[C@@H]12 | 13.8 |
| COc1ccc(C2OC(c3ccncc3)=NN2C)cc1OC (stereo not given) | > 100 |
| COC1C=COC2(C)Oc3c(C)c(O)c4c(O)c(c(C5SCCS5)c(O)c4c3C2=O)NC(=O)C(C)=C/C=C\C(C)C2OC(C)(C)OC(C2C)C(C)C(OC(C)=O)C1C (stereo not given) | 38.4 |
| CC(C)(C)C(=O)CC1=Nc2ccccc2SC1(O)CC(=O)C(C)(C)C (stereo not given) | 52.8 |
| N#CC1=C(N)N(c2ccccc2)C(c2ccccc2)C1(C#N)C#N (stereo not given) | 51.1 |
| CCOC(=O)NC(Nc1ccc([N+](=O)[O-])cc1)(C(F)(F)F)C(F)(F)F | > 100 |
| COc1cccc(/C=N/n2c(C)n[nH]c2=O)c1 | > 100 |
| CC1CCCC(CC(=O)O)(CC(=O)O)C1 (stereo not given) | > 100 |
| CC(=O)OCC1OC(n2c3c(cc(C#N)c2=S)CCCCC3)C(OC(C)=O)C(OC(C)=O)C1OC(C)=O (stereo not given) | > 100 |
| O=C(O)c1ccc(OCc2nc3cc(C(F)(F)F)ccc3nc2-c2ccccc2)cc1 | > 100 |
| COc1ccc(/C=C2\N=C(SC)NC2=O)cc1 | > 100 |
| CC(C)NC(=O)OCCN=c1c2ccccc2ccc2ccccc12 | > 100 |
| O=c1oc2ccc([N+](=O)[O-])cc2c(Nc2ccc3c(c2)Oc2ccccc2O3)c1[N+](=O)[O-] | > 100 |
| On1c(-c2ccccc2)nc2ccccc2c1=S | > 100 |
| Cn1c2ccccc2c(=O)c2cccc(C(=O)NC(CCCN=C(N)N)C(=O)O)c21 (stereo not given) | > 100 |
| C=C1CN2CC(=C)CN(C1)CS(=O)(=O)N1CC(=C)CN(CC(=C)C1)S(=O)(=O)N1CC(=C)CN(CC(=C)C1)S(=O)(=O)C2 | > 100 |
| O=C(O)/C=c1/c2ccccc2n2nc3ccccc3c12 | > 100 |
| Nc1ccc(S2(c3ccc(N)cc3)C=C(c3ccccc3)C(c3ccccc3)=C2)cc1 | > 100 |
| COc1ccc2c(cnc3c4cc(OC)c(OC)cc4ccc23)c1 | > 100 |
| O=C1C(=Cc2ccccc2O)N=C(c2ccccc2)N1n1c(-c2ccccc2)nc2ccccc2c1=O | > 100 |
| CC(C)=CCNc1ncnc2c1ncn2CCC#N | > 100 |

system: NCI-H522 lung; test: inhibition of tumour cell growth, NCI panel, 48 h

| Structure (SMILES) | TGI [µM] |
| --- | --- |
| C=C1C(=O)C=C[C@]2(C)CC[C@H]3C(=C)C(=O)O[C@@H]3[C@@H]12 | 3.77 |
| COc1ccc(C2OC(c3ccncc3)=NN2C)cc1OC (stereo not given) | > 100 |
| COC1C=COC2(C)Oc3c(C)c(O)c4c(O)c(c(C5SCCS5)c(O)c4c3C2=O)NC(=O)C(C)=C/C=C\C(C)C2OC(C)(C)OC(C2C)C(C)C(OC(C)=O)C1C (stereo not given) | 23 |
| CC(C)(C)C(=O)CC1=Nc2ccccc2SC1(O)CC(=O)C(C)(C)C (stereo not given) | 34.4 |
| N#CC1=C(N)N(c2ccccc2)C(c2ccccc2)C1(C#N)C#N (stereo not given) | 34.9 |
| CCOC(=O)NC(Nc1ccc([N+](=O)[O-])cc1)(C(F)(F)F)C(F)(F)F | > 100 |
| CSc1ncnc2c1ncn2CCC#N | > 100 |
| CC1CCCC(CC(=O)O)(CC(=O)O)C1 (stereo not given) | > 100 |
| CC(=O)OCC1OC(n2c3c(cc(C#N)c2=S)CCCCC3)C(OC(C)=O)C(OC(C)=O)C1OC(C)=O (stereo not given) | > 100 |
| CCC(=O)ONC(=O)Cn1ccc([N+](=O)[O-])n1 | > 100 |
| O=C(O)c1ccc(OCc2nc3cc(C(F)(F)F)ccc3nc2-c2ccccc2)cc1 | > 100 |
| COc1ccc(/C=C2\N=C(SC)NC2=O)cc1 | > 100 |
| O=c1oc2ccc([N+](=O)[O-])cc2c(Nc2ccc3c(c2)Oc2ccccc2O3)c1[N+](=O)[O-] | > 100 |
| C=C1CN2CC(=C)CN(C1)CS(=O)(=O)N1CC(=C)CN(CC(=C)C1)S(=O)(=O)N1CC(=C)CN(CC(=C)C1)S(=O)(=O)C2 | > 100 |
| O=C(O)/C=c1/c2ccccc2n2nc3ccccc3c12 | 60 |
| COc1ccc2c(cnc3c4cc(OC)c(OC)cc4ccc23)c1 | > 100 |
| O=C1C(=Cc2ccccc2O)N=C(c2ccccc2)N1n1c(-c2ccccc2)nc2ccccc2c1=O | 67.1 |
| CC(C)=CCNc1ncnc2c1ncn2CCC#N | > 100 |

system: UO-31 renal; test: inhibition of tumour cell growth, NCI panel, 48 h

| Structure (SMILES) | TGI [µM] |
| --- | --- |
| C=C1C(=O)C=C[C@]2(C)CC[C@H]3C(=C)C(=O)O[C@@H]3[C@@H]12 | 9 |
| COc1ccc(C2OC(c3ccncc3)=NN2C)cc1OC (stereo not given) | > 100 |
| COC1C=COC2(C)Oc3c(C)c(O)c4c(O)c(c(C5SCCS5)c(O)c4c3C2=O)NC(=O)C(C)=C/C=C\C(C)C2OC(C)(C)OC(C2C)C(C)C(OC(C)=O)C1C (stereo not given) | 32.6 |
| CC(C)(C)C(=O)CC1=Nc2ccccc2SC1(O)CC(=O)C(C)(C)C (stereo not given) | 44.2 |
| N#CC1=C(N)N(c2ccccc2)C(c2ccccc2)C1(C#N)C#N (stereo not given) | 34.8 |
| CCOC(=O)NC(Nc1ccc([N+](=O)[O-])cc1)(C(F)(F)F)C(F)(F)F | > 100 |
| CSc1ncnc2c1ncn2CCC#N | > 100 |
| COc1cccc(/C=N/n2c(C)n[nH]c2=O)c1 | > 100 |
| CC1CCCC(CC(=O)O)(CC(=O)O)C1 (stereo not given) | > 100 |
| CC(=O)OCC1OC(n2c3c(cc(C#N)c2=S)CCCCC3)C(OC(C)=O)C(OC(C)=O)C1OC(C)=O (stereo not given) | > 100 |
| CCC(=O)ONC(=O)Cn1ccc([N+](=O)[O-])n1 | > 100 |
| O=C(O)c1ccc(OCc2nc3cc(C(F)(F)F)ccc3nc2-c2ccccc2)cc1 | 39 |
| COc1ccc(/C=C2\N=C(SC)NC2=O)cc1 | 45.3 |
| CC(C)NC(=O)OCCN=c1c2ccccc2ccc2ccccc12 | 64.4 |
| O=c1oc2ccc([N+](=O)[O-])cc2c(Nc2ccc3c(c2)Oc2ccccc2O3)c1[N+](=O)[O-] | > 100 |
| On1c(-c2ccccc2)nc2ccccc2c1=S | > 100 |
| Cn1c2ccccc2c(=O)c2cccc(C(=O)NC(CCCN=C(N)N)C(=O)O)c21 (stereo not given) | > 100 |
| C=C1CN2CC(=C)CN(C1)CS(=O)(=O)N1CC(=C)CN(CC(=C)C1)S(=O)(=O)N1CC(=C)CN(CC(=C)C1)S(=O)(=O)C2 | > 100 |
| O=C(O)/C=c1/c2ccccc2n2nc3ccccc3c12 | > 100 |
| Nc1ccc(S2(c3ccc(N)cc3)C=C(c3ccccc3)C(c3ccccc3)=C2)cc1 | > 90.5 |
| COc1ccc2c(cnc3c4cc(OC)c(OC)cc4ccc23)c1 | > 100 |
| O=C1C(=Cc2ccccc2O)N=C(c2ccccc2)N1n1c(-c2ccccc2)nc2ccccc2c1=O | 86.5 |
| CC(C)=CCNc1ncnc2c1ncn2CCC#N | > 100 |

system: HT29 colon; test: inhibition of tumour cell growth, NCI panel, 48 h

| Structure (SMILES) | TGI [µM] |
| --- | --- |
| C=C1C(=O)C=C[C@]2(C)CC[C@H]3C(=C)C(=O)O[C@@H]3[C@@H]12 | 3.24 |
| COc1ccc(C2OC(c3ccncc3)=NN2C)cc1OC (stereo not given) | > 100 |
| CC(C)(C)C(=O)CC1=Nc2ccccc2SC1(O)CC(=O)C(C)(C)C (stereo not given) | 31.5 |
| N#CC1=C(N)N(c2ccccc2)C(c2ccccc2)C1(C#N)C#N (stereo not given) | 30.2 |
| CCOC(=O)NC(Nc1ccc([N+](=O)[O-])cc1)(C(F)(F)F)C(F)(F)F | > 100 |
| CSc1ncnc2c1ncn2CCC#N | > 100 |
| COc1cccc(/C=N/n2c(C)n[nH]c2=O)c1 | > 100 |
| CC1CCCC(CC(=O)O)(CC(=O)O)C1 (stereo not given) | > 100 |
| CC(=O)OCC1OC(n2c3c(cc(C#N)c2=S)CCCCC3)C(OC(C)=O)C(OC(C)=O)C1OC(C)=O (stereo not given) | > 100 |
| CCC(=O)ONC(=O)Cn1ccc([N+](=O)[O-])n1 | > 100 |
| O=C(O)c1ccc(OCc2nc3cc(C(F)(F)F)ccc3nc2-c2ccccc2)cc1 | > 100 |
| COc1ccc(/C=C2\N=C(SC)NC2=O)cc1 | > 100 |
| CC(C)NC(=O)OCCN=c1c2ccccc2ccc2ccccc12 | > 100 |
| O=c1oc2ccc([N+](=O)[O-])cc2c(Nc2ccc3c(c2)Oc2ccccc2O3)c1[N+](=O)[O-] | > 100 |
| On1c(-c2ccccc2)nc2ccccc2c1=S | > 100 |
| Cn1c2ccccc2c(=O)c2cccc(C(=O)NC(CCCN=C(N)N)C(=O)O)c21 (stereo not given) | > 100 |
| C=C1CN2CC(=C)CN(C1)CS(=O)(=O)N1CC(=C)CN(CC(=C)C1)S(=O)(=O)N1CC(=C)CN(CC(=C)C1)S(=O)(=O)C2 | > 100 |
| O=C(O)/C=c1/c2ccccc2n2nc3ccccc3c12 | > 100 |
| Nc1ccc(S2(c3ccc(N)cc3)C=C(c3ccccc3)C(c3ccccc3)=C2)cc1 | > 100 |
| COc1ccc2c(cnc3c4cc(OC)c(OC)cc4ccc23)c1 | > 100 |
| O=C1C(=Cc2ccccc2O)N=C(c2ccccc2)N1n1c(-c2ccccc2)nc2ccccc2c1=O | > 100 |
| CC(C)=CCNc1ncnc2c1ncn2CCC#N | > 100 |

system: COLO 205 colon; test: inhibition of tumour cell growth, NCI panel, 48 h

| Structure (SMILES) | TGI [µM] |
| --- | --- |
| C=C1C(=O)C=C[C@]2(C)CC[C@H]3C(=C)C(=O)O[C@@H]3[C@@H]12 | 2.24 |
| COc1ccc(C2OC(c3ccncc3)=NN2C)cc1OC (stereo not given) | > 100 |
| COC1C=COC2(C)Oc3c(C)c(O)c4c(O)c(c(C5SCCS5)c(O)c4c3C2=O)NC(=O)C(C)=C/C=C\C(C)C2OC(C)(C)OC(C2C)C(C)C(OC(C)=O)C1C (stereo not given) | > 100 |
| CC(C)(C)C(=O)CC1=Nc2ccccc2SC1(O)CC(=O)C(C)(C)C (stereo not given) | 29.8 |
| N#CC1=C(N)N(c2ccccc2)C(c2ccccc2)C1(C#N)C#N (stereo not given) | 36.1 |
| CCOC(=O)NC(Nc1ccc([N+](=O)[O-])cc1)(C(F)(F)F)C(F)(F)F | > 100 |

Reference: PubChem BioAssay (NCI)
